Experimental data: patent US11091749B2, “Deimmunized lysostaphin and methods of use” (TRUSTEES OF DARTMOUTH COLLEGE, priority 2014, dated 2021)
Read-outs that look alike come from different tables or passages of the source. Values belong to the substance of their own block, whether it stands above or below them. Where no end group is shown, it is not given here.

What was measured:
Assay in all cases: MHC II competition binding assay
DRB1*0101 = target: T1, DRB1*0101 (Homo sapiens, UniProt P01903+P01911, A100R/D57E/F55L/F60I/F76Y/I96L/L162R/M171V/P40L/Q125E/R42F/V115G/Y59C)
T1 construct: purchased Benaroya Research Institute (Seattle, Wash.)
Method: (§1) MHC Binding Assays. MHC II competition binding assays were performed using a 384-well high throughput assay as previously described (Salvat, et al. (2014) supra). Binding assays were performed for the eight alleles: DRB1*0101, 0301, 0401, 0701, 0801, 1101, 1301, and 1501. Briefly, 100 nM biotinylated control peptides composed of known peptide antigens for each MHC II allele were incubated in polypropylene 384-well plates with 50 nM purified recombinant MHC II protein and serial dilutions of LST or variant peptide fragments (100 μM to 10 nM). Peptide-MHC II complexes were captured from equilibrated solutions using the conformation specific anti-HLA-DR antibody L243 coated on high binding ELISA plates. Bound control peptide was quantified using the DELFIA streptavidin-Europium conjugate and time resolved fluorescence (SpectraMax Gemini Fluorescence Microplate Reader).

DRB1*0301 = target: T2, DRB1*0301 (Homo sapiens, UniProt P01903+P01911, A100K/A102G/A103R/A169T/F55Y/I96L/K41T/L162R/M171V/P40S/Q125H/Q178H/Q39Y/R42S/S66N/T106N/T262R/W38E/Y61H)
T2 construct: purchased Benaroya Research Institute (Seattle, Wash.)
Method: as §1

DRB1*0401 = target: T3, DRB1*0401 (Homo sapiens, UniProt P01903+P01911, A100K/A169T/F76Y/I96L/K127E/L162R/M171V/N62H/P40V/Q125Y/R42H/S133A/S149N/S66Y/V115G/V209L/W38E)
T3 construct: purchased Benaroya Research Institute (Seattle, Wash.)
Method: as §1

DRB1*0801 = DRB1*0801 (Homo sapiens, UniProt P01903+P01911, A100R/A103L/A169T/D86S/F76Y/H45Y/I96F/K41T/L162R/M171V/P40S/Q125H/Q178H/Q39Y/Q99D/R218S/R42G/S66Y/V115G/W38E)
Method: as §1

DRB1*1101 = DRB1*1101 (Homo sapiens, UniProt P01903+P01911, A100R/A169T/A87E/I96F/K41T/L162R/M171V/P40S/Q125H/Q178H/Q39Y/Q99D/R42S/S66Y/T262R/V115G/W38E)
Method: as §1

DRB1*1301 = DRB1*1301 (Homo sapiens, UniProt P01903+P01911, A100E/A169T/K41T/L162R/M171V/P40S/Q125H/Q178H/Q39Y/Q99D/R42S/S66N/T262R/W38E/Y61H)
Method: as §1

DRB1*1501 = target: T4, DRB1*1501 (Homo sapiens, UniProt P01903+P01911)
T4 construct: purchased Benaroya Research Institute (Seattle, Wash.)
Method: as §1, with “MHC II competition binding assays were performed using a 384-well high throughput assay as previously described (Salvat, et al. (2014) supra). Binding assays were performed for the eight alleles: DRB1*0101, 0301, 0401, 0701, 0801, 1101, 1301, and 1501.” left out

DRB1*0701 = DRB1*0701 (Homo sapiens, UniProt P01903+P01911, A100R/A102G/A103Q/D57E/D86V/E43K/F76Y/K127E/L162R/M171V/P40G/Q125H/Q99D/R33Q/R42Y/R54Q/S133A/S66F/T210M/V115G/Y107V/Y59L/Y89S)
Method: as §1

[1] = synthetic peptide competing with biotinylated control peptide, read-out: IC50 0401
[2] = synthetic peptide competing with biotinylated control peptide, read-out: IC50 0301
[3] = synthetic peptide competing with biotinylated control peptide, read-out: IC50 0701
[4] = synthetic peptide competing with biotinylated control peptide, read-out: IC50 1501

Substance: Asn12Gly: full-length lysostaphin single point mutant
binder class DRB1*0101 (DRB1*0101): strong (strong binder if an IC50 value of less than 0.1 μM was observed)

IC50 (DRB1*0101; DRB1*0101, read-out: IC50): < 0.01 µM
IC50 (DRB1*0301; DRB1*0301, read-out: IC50): > 250 µM
IC50 (DRB1*0401; DRB1*0401, read-out: IC50): < 0.01 µM
IC50 (DRB1*0801; DRB1*0801, read-out: IC50): > 250 µM
IC50 (DRB1*1101; DRB1*1101, read-out: IC50): > 250 µM
IC50 (DRB1*1301; DRB1*1301, read-out: IC50): > 250 µM
IC50 (DRB1*1501; DRB1*1501, read-out: IC50): < 0.01 µM
Substance: DHVKAGQQIGWSGSTGY [Peptide 93_99]

binder class DRB1*0101 (DRB1*0101): weak or non-binder
binder class DRB1*1501 (DRB1*1501): weak/non-binder
Substance: Tyr93His/Lys95Glu/Ile99Gln: cluster 4 synthetic peptide with three mutations (Table 15) (DHVEAGQQIGWSGSTGY)

Substance: DYVKAGQQIGWSGSTGY [Peptide I99Q]
IC50 (DRB1*0301): > 250 µM
IC50 (DRB1*0801): > 250 µM
IC50 (DRB1*1301): > 250 µM

Substance: Tyr93His/Lys95Glu: cluster 4 synthetic peptide with Tyr93His and Lys95Glu (Table 15) (DHVEAGQIIGWSGSTGY)
binder class DRB1*0101 (DRB1*0101): moderate (moderate if an IC50 value was in the 0.1-1 μM range)

Substance: Asn13His: full-length lysostaphin single point mutant
binder class DRB1*1301 (DRB1*1301): weak (weak if an IC50 value was in the 1-10 μM range)

IC50 (DRB1*0401; [1]): > 250 µM
Substance: GVHRQWYMHMSKYNVKVGD [Design L83M]

Substance: HLHFQRMVNDFSNPTAQ [Peptide S122D]
IC50 (DRB1*0101): < 0.01 µM
IC50 (DRB1*0301): 9.42 µM
IC50 (DRB1*0401): < 0.01 µM
IC50 (DRB1*0701): > 250 µM
IC50 (DRB1*0801): 150 µM
IC50 (DRB1*1101): < 0.01 µM
IC50 (DRB1*1301): > 250 µM
IC50 (DRB1*1501): < 0.01 µM

IC50 (DRB1*0301; [2]): > 250 µM
IC50 (DRB1*0401; [1]): > 250 µM
IC50 (DRB1*0701; [3]): > 250 µM
IC50 (DRB1*0801; synthetic peptide competing with biotinylated control peptide, read-out: IC50 0801): 13.7 µM
IC50 (DRB1*1501; [4]): 101 µM
Substance: SAQWLNNYKKGYGYG [Design C1WT]

Substance: HLHFQTMVNDFSNPTAQ [Peptide 18_22]
IC50 (DRB1*0101): < 0.01 µM
IC50 (DRB1*0301): 28.2 µM
IC50 (DRB1*0401): < 0.01 µM
IC50 (DRB1*0701): 111 µM
IC50 (DRB1*0801): > 250 µM
IC50 (DRB1*1101): < 0.01 µM
IC50 (DRB1*1301): > 250 µM
IC50 (DRB1*1501): < 0.01 µM

IC50 (DRB1*0101; synthetic peptide competing with biotinylated control peptide, read-out: IC50 0101): < 0.01 µM
IC50 (DRB1*0301; [2]): > 250 µM
IC50 (DRB1*0401; [1]): > 250 µM
IC50 (DRB1*0701; [3]): > 250 µM
IC50 (DRB1*1301; synthetic peptide competing with biotinylated control peptide, read-out: IC50 1301): > 250 µM
IC50 (DRB1*1501; [4]): > 250 µM
Substance: SAQWLGNYKKGYGYG [Design N12G]

IC50 (DRB1*0101; DRB1*0101, read-out: IC50): > 250 µM
IC50 (DRB1*0301; DRB1*0301, read-out: IC50): > 250 µM
IC50 (DRB1*0401; DRB1*0401, read-out: IC50): > 250 µM
IC50 (DRB1*0801; DRB1*0801, read-out: IC50): > 250 µM
IC50 (DRB1*1101; DRB1*1101, read-out: IC50): > 250 µM
IC50 (DRB1*1301; DRB1*1301, read-out: IC50): > 250 µM
IC50 (DRB1*1501; DRB1*1501, read-out: IC50): > 250 µM
Substance: DHVEAGQQIGWSGSTGY [Peptide 939599]

Substance: GVDFFMNEGTPVHAISSGKIV [Design 41_46]
IC50 (DRB1*0101): < 0.01 µM
IC50 (DRB1*0301): > 250 µM
IC50 (DRB1*0401): < 0.01 µM
IC50 (DRB1*0801): > 250 µM
IC50 (DRB1*1101): < 0.01 µM
IC50 (DRB1*1301): > 250 µM
IC50 (DRB1*1501): < 0.01 µM

fold decrease in binding vs wild-type peptide, 0101 (DRB1*0101): two-fold
Substance: Lys46His: full-length lysostaphin single point mutant
